Measured values as given in patent US6893846B2, “Primers for use in detecting beta-lactamases” (priority 1998, dated 2005).
In brackets after ≈: the same amount, converted by molar mass. Where two headings read alike, the source gives them in different places.

How the values were obtained:
[1] = test system: E. coli HB101 transformant (17 kb plasmid); details: disk diffusion, Tr (17 kb) = transformant E. coli HB101
K. pneumoniae 225 [2] = test: MicroScan Walkaway microdilution susceptibility test; format: cell-based, Klebsiella pneumoniae; details: for MicroScan susceptibility result: K. pneumoniae 225; for MIC: Klebsiella pneumoniae, 225, read-out: MicroScan MIC
E. aerogenes [3] = test: Disk diffusion susceptibility test; format: cell-based, Enterobacter aerogenes; details: all the E. aerogenes strains
Description: Antibiotic susceptibilities were determined by standard disk-diffusion (NCCLS Standard M2-A6) and agar-dilution (NCCLS Standard M7-A4) procedures. Disks were obtained from Becton Dickinson Microbiology Systems (Cockeysville, Md.). Disk-diffusion susceptibilities to the following antibiotics were determined, ampicillin; amoxicillin clavulanic acid; aztreonam; cefazolin; cefoxitin; cefuroxime; cefotaxime; ceftriaxone; ceftazidime; cefepime; imipenem; gentamicin; trimethoprim/sulfamethoxazole and ciprofloxacin. […] The following quality control strains were run simultaneously with the test organisms Escherichia coli ATCC 25922, Pseudomonas aeruginosa ATCC 27853, and E. coli ATCC 35218. Throughout this study, results were interpreted using NCCLS criteria for disk diffusion (NCCLS M2-A6) and broth dilution (NCCLS M7-A4).

K. pneumoniae 225 [4] = test: NCCLS microdilution susceptibility test; format: cell-based, Klebsiella pneumoniae; details: Klebsiella pneumoniae, 225
K. pneumoniae = test: Agar dilution MIC, South African isolates; format: cell-based, Klebsiella pneumoniae; details: tzp with tazobactam 4 μg/ml
Excerpt: (§1) The strains were provided in response to a request for all strains of Enterobacteriaceae, lacking inducible beta-lactamases, that were intermediate or resistant to cefotaxime or ceftazidime. […]

P. mirabilis = test: Agar dilution MIC, South African isolates; format: cell-based, Proteus mirabilis; details: 4 strains, tzp with tazobactam 4 μg/ml
Excerpt: During a period of three months in 1993, […] strains of Klebsiella pneumoniae (13 blood, 5 burn, 7 wound, 11 tracheal isolates), 4 strains of Proteus mirabilis (all wound isolates) and 4 strains of Escherichia coli (1 blood, 1 burn, 2 wound isolates) were collected from patients at the following medical centers in South Africa: Tygerberg Hospital near Cape Town, King Edward VIII Hospital in Durban, Chris Hani Baragwanath Hospital in Soweto and Pretoria Academic Hospital in Pretoria. The strains were provided in response to a request for all strains of Enterobacteriaceae, lacking inducible beta-lactamases, that were intermediate or resistant to cefotaxime or ceftazidime. […] Therefore accurate prevalence data were not obtained.
Antibiotic susceptibility was determined by standard disk diffusion (NCCLS Standard M2-T4, 1994) and agar dilution (NCCLS Standard M7-T2, 1994) procedures. Standard powders of antimicrobial agents were kindly provided by the following companies: piperacillin and tazobactam (Lederle Laboratories, Wayne, N.J.); cefoxitin and imipenem, (Merck, Rathway, N.J.); cefotaxime, (Hoechst-Roussel Pharmaceuticals Inc., Somerville, N.J.); ceftazidime, (Glaxo Group Research Ltd., Greenford, England); aztreonam and cefepime, (Bristol-Myers Squibb, Princeton, N.J.). Disks for agar diffusion were obtained from Becton Dickinson Microbiology Systems (Cockeysville, Md.). For quality control purposes, the following quality control strains were run simultaneously with the test organisms E. coli ATCC 25922, Pseudomonas aeruginosa ATCC 27853, E. coli ATCC 35218, and Staphylococcus aureus ATCC 29213. Throughout this study, results were interpreted using NCCLS criteria for disk diffusion (NCCLS Standard M2-T4, 1994) and broth dilution (NCCLS Standard M7-T2, 1994).

E. coli = test: Agar dilution MIC, South African isolates; format: cell-based, Escherichia coli; details: tzp with tazobactam 4 μg/ml
Excerpt: as §1

K. pneumoniae 225 [5] = test: NCCLS disk diffusion assay; format: cell-based, Klebsiella pneumoniae; details: disk diffusion, Kleb 225
[6] = test system: E. coli C600 transconjugant; details: disk diffusion, Tc = transconjugate E. coli C600
K. pneumoniae 225 [7] = test: Three-dimensional test (enzymatic inactivation of antibiotics); details: beta-lactamase-mediated hydrolysis by K. pneumoniae 225, lawn E. coli ATCC 25922
E. aerogenes [8] = format: cell-based, Enterobacter aerogenes
Description: Antibiotic susceptibilities were determined by standard disk-diffusion (NCCLS Standard M2-A6) and agar-dilution (NCCLS Standard M7-A4) procedures. Disks were obtained from Becton Dickinson Microbiology Systems (Cockeysville, Md.). […] Throughout this study, results were interpreted using NCCLS criteria for disk diffusion (NCCLS M2-A6) and broth dilution (NCCLS M7-A4).

[9] = test system: beta-lactamases in sonic extracts of E. aerogenes; test: Isoelectric focusing overlay: cefotaxime hydrolysis, inhibitors, induction; details: cefoxitin at 1/4 of the MIC
[10] = resistance phenotype Kpn2, 28 strains
[11] = resistance phenotype Ec2, 1 strain

Compound: NCC[C@H](O)C(=O)N[C@@H]1C[C@H](N)[C@@H](O[C@H]2O[C@H](CN)[C@@H](O)[C@H](O)[C@H]2O)[C@H](O)[C@H]1O[C@H]1O[C@H](CO)[C@@H](O)[C@H](N)[C@H]1O [amikacin]
- Zone Size [1]: 12 mm
- MicroScan susceptibility result (K. pneumoniae 225 [2]): Resistant
- MIC (K. pneumoniae 225 [2]): > 32 µg/mL

Compound: CC1(C)S[C@@H]2[C@H](NC(=O)[C@H](N)c3ccccc3)C(=O)N2[C@H]1C(=O)O [ampicillin]
- Disk diffusion susceptibility (E. aerogenes [3]): resistant
- Zone Size [1]: 7 mm

Compound: Cc1nnc(SCC2=C(C(=O)O)N3C(=O)[C@@H](NC(=O)Cn4cnnn4)[C@H]3SC2)s1 [cefazolin]
- Disk diffusion susceptibility (E. aerogenes [3]): resistant
- MIC (K. pneumoniae 225 [4]): > 64 µg/mL

Compound: CO/N=C(\C(=O)N[C@@H]1C(=O)N2C(C(=O)[O-])=C(C[N+]3(C)CCCC3)CS[C@H]12)c1csc(N)n1 [cefepime]
- MIC range (K. pneumoniae; [10]): 0.5 to 4 µg/mL
- MIC (K. pneumoniae 225 [4]): 1 µg/mL (≈ 2.08 µM)
- MIC range (P. mirabilis): 2 µg/mL
- MIC range (E. coli; [11]): 2 µg/mL

Compound: C=CC1=C(C(=O)O)N2C(=O)[C@@H](NC(=O)/C(=N\OCC(=O)O)c3csc(N)n3)[C@H]2SC1 [cefixime]
- MIC (K. pneumoniae 225 [4]): > 64 µg/mL

Compound: CO[C@@]1(NC(=O)C2SC(=C(C(N)=O)C(=O)O)S2)C(=O)N2C(C(=O)O)=C(CSc3nnnn3C)CS[C@@H]21 (some centres unmarked) [cefotetan]
- Zone Size (K. pneumoniae 225 [5]): 12 mm
- Zone Size [1]: 30 mm
- Zone Size [6]: 11 mm
- MIC (K. pneumoniae 225 [2]): 16 µg/mL (≈ 27.8 µM)

Compound: CO[C@@]1(NC(=O)Cc2cccs2)C(=O)N2C(C(=O)O)=C(COC(N)=O)CS[C@@H]21 [cefoxitin]
- three dimensional test (K. pneumoniae 225 [7]): positive
- Zone Size (K. pneumoniae 225 [5]): 6 mm
- MIC range (K. pneumoniae; resistance phenotype Kpn1, 8 strains): 2 to 4 µg/mL
- MIC range (K. pneumoniae; [10]): 2 to 8 µg/mL
- MIC range (K. pneumoniae; resistance phenotype Kpn3 (K. pneumoniae Pit 68), 1 strain): > 128 µg/mL
- MIC range (K. pneumoniae; resistance phenotype Kpn3 (K. pneumoniae Pit 68), 1 strain, listed as fox): >128 µg/mL
- MIC range (E. aerogenes [8]; 1 E. aerogenes strain with Bush group 1 and group 2be (SHV-3) enzymes): >256 µg/mL
- MIC range (E. aerogenes [8]; 1 E. aerogenes strain with Bush group 1 and group 2be (SHV-5) enzymes): >256 µg/mL
- MIC range (E. aerogenes [8]; 29 E. aerogenes strains with Bush group 1 and group 2be (SHV-4) enzymes): >256 µg/mL
- Zone Size [1]: 25 mm
- Zone Size [6]: 7 mm
- MIC (K. pneumoniae 225 [4]): > 64 µg/mL
- MIC range (P. mirabilis): 2 to 4 µg/mL
- MIC range (E. coli; resistance phenotype Ec1, 3 strains): 4 µg/mL
- MIC range (E. coli; [11]): 8 µg/mL
- Inducible by cefoxitin ([9]; SHV-3 strain (1), Bush group 1 enzyme pI 8.3): yes
- Inducible by cefoxitin ([9]; SHV-3 strain (1), Bush group 2be enzyme pI 6.9): no
- Inducible by cefoxitin ([9]; SHV-4 strains (29), Bush group 1 enzyme pI 8.3): yes
- Inducible by cefoxitin ([9]; SHV-4 strains (29), Bush group 2be enzyme pI 7.8): no
- Inducible by cefoxitin ([9]; SHV-5 strain (1), Bush group 1 enzyme pI 8.3): yes
- Inducible by cefoxitin ([9]; SHV-5 strain (1), Bush group 2Be enzyme pI 8.0): no

Compound: COCC1=C(C(=O)O)N2C(=O)[C@@H](NC(=O)/C(=N\OC)c3csc(N)n3)[C@H]2SC1 [cefpodoxime]
- MIC (K. pneumoniae 225 [4]): 64 µg/mL (≈ 150 µM)

Compound: CO/N=C(\C(=O)N[C@@H]1C(=O)N2C(C(=O)O)=C(COC(N)=O)CS[C@H]12)c1ccco1 [cefuroxime]
- Disk diffusion susceptibility (E. aerogenes [3]): resistant
- MicroScan susceptibility result (K. pneumoniae 225 [2]): Resistant
- MIC (K. pneumoniae 225 [2]): > 16 µg/mL

Compound: CC(=O)OCC1=C(C(=O)O)N2C(=O)[C@@H](NC(=O)Cc3cccs3)[C@H]2SC1 [cephalothin]
- MIC (K. pneumoniae 225 [4]): > 64 µg/mL

Compound: O=C(N[C@H](CO)[C@H](O)c1ccc([N+](=O)[O-])cc1)C(Cl)Cl [chloramphenicol]
- Zone Size (K. pneumoniae 225 [5]): 8 mm
- Zone Size [1]: 22 mm
- Zone Size [6]: 12 mm
- MicroScan susceptibility result (K. pneumoniae 225 [2]): Resistant
- MIC (K. pneumoniae 225 [2]): > 16 µg/mL
